Measurements published in publication PMC12390655 (Viruses, 2025).
Ends that are not written are not given here.

Legend:
[1] = target: eVP24–KPNA5-ΔIBB complex (Homo sapiens, UniProt O15131); test: biochemical; format: binding, Human KPNA5; Ebola VP24
[2] = target: monopartite NLS peptide (mpNLS) from the SV40 large T antigen (SV40); test: fluorescence polarisation

## KRPAATKKAGQAKKKK [bpNLS]
[1]
  Kd: 0.21 µM

## STPPKKKRKVE [mpNLS]
[1]
  Kd: 5.2 µM

## Human KPNA5 aa 66–508 (KPNA5-ΔIBB) (domain or fragment)
[2]
  Kd: 5.3 µM
